From the NIST ThermoML archive (doi:10.1021/je030226s)

Columns and labels:
[1] = xn = mol fraction of the nth substance listed; conditions: 101.32 kPa, Liquid
[2] = refractive index (Na D-line) (dimensionless); xn = mol fraction of the nth substance listed; conditions: 101.32 kPa, Liquid

CCO [ethanol] + CCCCCl
x1 = 1
Conditions | mass density, 288.15 K [kg/m3] | mass density, 298.15 K [kg/m3] | mass density, 308.15 K [kg/m3] | refractive index, 288.15 K | refractive index, 298.15 K | refractive index, 308.15 K | viscosity, 288.15 K [mPa·s] | viscosity, 298.15 K [mPa·s] | viscosity, 308.15 K [mPa·s]
[1] | 793.8 | 785.2 | 776.6 | – | – | – | 1.317 | 1.085 | 0.902
[2] | – | – | – | 1.363 | 1.3591 | 1.355 | – | – | –

CCCCCl [1-chlorobutane] + CO
Conditions | mass density, 288.15 K [kg/m3] | mass density, 298.15 K [kg/m3] | mass density, 308.15 K [kg/m3] | refractive index, 288.15 K | refractive index, 298.15 K | refractive index, 308.15 K | viscosity, 288.15 K [mPa·s] | viscosity, 298.15 K [mPa·s] | viscosity, 308.15 K [mPa·s]
[1], x2 = 0 | 892.2 | 881 | 869.7 | – | – | – | 0.472 | 0.423 | 0.382
[1], x2 = 0.05 | 889.6 | 878.4 | 867.1 | – | – | – | 0.463 | 0.416 | 0.375
[1], x2 = 0.1 | 887.2 | 876.1 | 864.7 | – | – | – | 0.462 | 0.413 | 0.374
[1], x2 = 0.2 | 882.4 | 871.2 | 859.9 | – | – | – | 0.465 | 0.412 | 0.376
[1], x2 = 0.3 | 876.9 | 865.6 | 854.5 | – | – | – | 0.478 | 0.421 | 0.382
[1], x2 = 0.4 | 870.6 | 859.6 | 848.4 | – | – | – | 0.496 | 0.435 | 0.393
[1], x2 = 0.5 | 863.3 | 852.4 | 841.3 | – | – | – | 0.516 | 0.45 | 0.407
[1], x2 = 0.6 | 854.6 | 843.9 | 833 | – | – | – | 0.536 | 0.469 | 0.416
[1], x2 = 0.7 | 844.2 | 833.7 | 823.1 | – | – | – | 0.559 | 0.489 | 0.431
[1], x2 = 0.8 | 831.7 | 821.4 | 811 | – | – | – | 0.581 | 0.506 | 0.445
[1], x2 = 0.9 | 815.9 | 806 | 796 | – | – | – | 0.601 | 0.521 | 0.457
[1], x2 = 0.95 | 806.6 | 796.9 | 787.2 | – | – | – | 0.613 | 0.532 | 0.467
[2], x2 = 0 | – | – | – | 1.4045 | 1.3993 | 1.3941 | – | – | –
[2], x2 = 0.05 | – | – | – | 1.4032 | 1.398 | 1.3928 | – | – | –
[2], x2 = 0.1 | – | – | – | 1.4015 | 1.3964 | 1.3912 | – | – | –
[2], x2 = 0.2 | – | – | – | 1.3978 | 1.3927 | 1.3877 | – | – | –
[2], x2 = 0.3 | – | – | – | 1.3936 | 1.3885 | 1.3834 | – | – | –
[2], x2 = 0.4 | – | – | – | 1.3885 | 1.3835 | 1.3785 | – | – | –
[2], x2 = 0.5 | – | – | – | 1.3827 | 1.3778 | 1.3728 | – | – | –
[2], x2 = 0.6 | – | – | – | 1.3759 | 1.371 | 1.366 | – | – | –
[2], x2 = 0.7 | – | – | – | 1.3679 | 1.3628 | 1.3579 | – | – | –
[2], x2 = 0.8 | – | – | – | 1.3579 | 1.3529 | 1.3478 | – | – | –
[2], x2 = 0.9 | – | – | – | 1.3457 | 1.3413 | 1.3365 | – | – | –
[2], x2 = 0.95 | – | – | – | 1.3384 | 1.3342 | 1.3298 | – | – | –

CCCCCl [1-chlorobutane] + CCCCO
Conditions | mass density, 288.15 K [kg/m3] | mass density, 298.15 K [kg/m3] | mass density, 308.15 K [kg/m3] | refractive index, 288.15 K | refractive index, 298.15 K | refractive index, 308.15 K | viscosity, 288.15 K [mPa·s] | viscosity, 298.15 K [mPa·s] | viscosity, 308.15 K [mPa·s]
[1], x2 = 0 | 892.2 | 881 | 869.7 | – | – | – | 0.472 | 0.423 | 0.382
[1], x2 = 0.05 | 888 | 876.9 | 865.7 | – | – | – | 0.49 | 0.437 | 0.388
[1], x2 = 0.1 | 884.3 | 873.3 | 862.3 | – | – | – | 0.506 | 0.453 | 0.41
[1], x2 = 0.2 | 877 | 866.3 | 855.5 | – | – | – | 0.569 | 0.499 | 0.442
[1], x2 = 0.3 | 869.7 | 859.4 | 848.9 | – | – | – | 0.655 | 0.569 | 0.497
[1], x2 = 0.4 | 862.4 | 852.4 | 842.2 | – | – | – | 0.781 | 0.665 | 0.57
[1], x2 = 0.5 | 854.9 | 845.3 | 835.4 | – | – | – | 0.953 | 0.798 | 0.676
[1], x2 = 0.6 | 847.3 | 838 | 828.6 | – | – | – | 1.196 | 0.977 | 0.81
[1], x2 = 0.7 | 839.4 | 830.5 | 821.5 | – | – | – | 1.528 | 1.221 | 1
[1], x2 = 0.8 | 831.2 | 822.7 | 814.1 | – | – | – | 1.979 | 1.563 | 1.251
[1], x2 = 0.9 | 822.6 | 814.5 | 806.3 | – | – | – | 2.601 | 2.019 | 1.584
[1], x2 = 0.95 | 818.1 | 810.3 | 802.3 | – | – | – | 2.966 | 2.328 | 1.784
[2], x2 = 0 | – | – | – | 1.4045 | 1.3993 | 1.3941 | – | – | –
[2], x2 = 0.05 | – | – | – | 1.4041 | 1.3989 | 1.3936 | – | – | –
[2], x2 = 0.1 | – | – | – | 1.4039 | 1.3987 | 1.3934 | – | – | –
[2], x2 = 0.2 | – | – | – | 1.4035 | 1.3984 | 1.3932 | – | – | –
[2], x2 = 0.3 | – | – | – | 1.4031 | 1.3982 | 1.3931 | – | – | –
[2], x2 = 0.4 | – | – | – | 1.4029 | 1.3981 | 1.3931 | – | – | –
[2], x2 = 0.5 | – | – | – | 1.4027 | 1.398 | 1.3932 | – | – | –
[2], x2 = 0.6 | – | – | – | 1.4024 | 1.3979 | 1.3932 | – | – | –
[2], x2 = 0.7 | – | – | – | 1.4022 | 1.3978 | 1.3933 | – | – | –
[2], x2 = 0.8 | – | – | – | 1.4019 | 1.3977 | 1.3933 | – | – | –
[2], x2 = 0.9 | – | – | – | 1.4016 | 1.3975 | 1.3933 | – | – | –
[2], x2 = 0.95 | – | – | – | 1.4013 | 1.3974 | 1.3933 | – | – | –
